In brackets after ≈: the same amount, converted by molar mass.
Key:
Type in all cases: cell-based, Mycobacterium tuberculosis
[1] = system: M. tuberculosis 88.1 mutant (coaA A620G (Q207R))
[2] = system: M. tuberculosis 88.3, 88.4, 88.5, 88.9, 88.11, 88.12 mutants (coaA A620G (Q207R))
[3] = system: M. tuberculosis 88.2 mutant (coaA A620G (Q207R))
[4] = system: M. tuberculosis 82.21 mutant (ethA Δ1283–4, coaA A620G (Q207R))
[5] = system: M. tuberculosis 81.10 mutant (ethA Δ1109–1137)

SMILES	MIC [1]	MIC [2]	MIC [3]	MIC [4]	MIC [5]
CC1=CC=C(C(=O)Nc2ccc([N+](=O)[O-])cc2)S1(=O)=O [compound 11426026]	2.5 µg/mL (≈ 8.5 µM)	2.5 µg/mL (≈ 8.5 µM)	2.5 µg/mL (≈ 8.5 µM)	2.5 µg/mL (≈ 8.5 µM)	1 µg/mL (≈ 3.4 µM)
Cc1ccc(C(=O)Nc2ccc([N+](=O)[O-])cc2)s1 [compound 7947882, 5-methyl-N-(4-nitrophenyl)thiophene-2-carboxamide]	2.5 µg/mL (≈ 9.53 µM)	2.5 µg/mL (≈ 9.53 µM)	2.5 µg/mL (≈ 9.53 µM)	>40 µg/mL	>40 µg/mL
O=C(CCc1ccccc1)NC(=S)Nc1ccc(N2CCCCC2)cc1 [compound 7904688, 3-phenyl-N-[(4-piperidin-1-ylphenyl)carbamothioyl]propanamide]	10 µg/mL (≈ 27.2 µM)	10 µg/mL (≈ 27.2 µM)	10 µg/mL (≈ 27.2 µM)	>40 µg/mL	>40 µg/mL
CCc1cc(C(N)=S)ccn1 [Ethionamide, reference compound]	1 µg/mL (≈ 6.02 µM)	1 µg/mL (≈ 6.02 µM)	1 µg/mL (≈ 6.02 µM)	10 µg/mL (≈ 60.2 µM)	10 µg/mL (≈ 60.2 µM)

Reference: paper PMC5816626, “A multitarget approach to drug discovery inhibiting Mycobacterium tuberculosis PyrG and PanK” (Scientific Reports, 2018)
